Results from patent US20230151373A1, “CHIMERIC POLYPEPTIDE FOR REGULATING IMMUNE CELLS” (STICHTING HET NEDERLANDS KANKER INSTITUUT-ANTONI VAN …, priority 2019, published 2023).
“Also recorded” adds a separate entry of the source.

Tests used:
[1] = system: primary human T cells modified with the HLA class I restricted CDK4 TCR; experiment: Cytokine release and degranulation assay, CDK4 TCR T cells co-cultured with CDK4 peptide loaded T2 cells; format: cell-based
Protocol: (§1) For use as T cell targets, T2 and CBH 5477 cells were loaded with the indicated concentrations of HLA-A*02:01 restricted mutant CDK4 peptide (ALDPHSGHFV), HLA A*02:01 restricted NY-ESO-1 peptide (SLLMWITQA), or HLA-DR1 restricted CMV peptide (KYQEFFWDANDIYRI) in IMDM for 1 hour at 37° C. Cells were then washed once and used in co-culture experiments.
(§2) T cells and NK cells were pretreated with the indicated concentrations of asunaprevir (MedChemExpress, #HY-14434), grazoprevir (MedChemExpress, #HY-15298), dTAG-13 (Tocris, #6605) or DMSO control in T cell media (RPMI/10% human serum/penicillin-streptomycin, 100 IU/ml IL2 and 5 ng/ml IL15) or NK cell media (RPMI/8% FCS/penicillin-streptomycin, 500 IU/ml IL2), respectively, for 24 hours before co-culture experiments. 100,000 T cells or NK cells and 100,000 of indicated tumor cells were mixed in T cell or NK cell media supplemented with golgi-plug (1:1000 dilution, BD, #51-2301KZ) and anti-LAMP1-APC (1:100 dilution, Biolegend, #328620) in the presence of indicated drugs or DMSO control in 96-well plates and incubated for 5 hours at 37° C.
After incubation, cells were washed once with PBS and stained with IR dye (Invitrogen, #L34976) at 1:400 dilution for 5 minutes at 4° C. Subsequently, cells were washed once with FACS buffer (PBS plus 0.5% BSA) and stained with anti-CD8-PerCP Cy5.5 (1:20 dilution, BD, #341050), anti-CD4 BV711 (1:50 dilution, Biolegend, #317440), anti-murine constant TCR-PE (in experiments with transduced TCRs, 1:200 dilution, BD, #553172) or cetuximab-PE (in experiments with transduced CAR construct containing truncated human EGFR reporter, 1:200 dilution, R&D Systems, #FAB9577P) for 20 minutes at 4° C. Cells were then washed once with FACS buffer and fixed with BD fixation and permeabilization solution (#51-2090KZ) for 20 minutes at 4° C.
(§3) Following permeabilization, cells were washed twice with BD perm/wash buffer (#51-2091KZ) and stained with anti-IFNγ-BV421 (1:100 dilution, BD, #564791), anti-IL-2-PE-Cy7 (1:100 dilution, BD, #560707) and anti-TNFα-BV650 (1:100 dilution, Biolegend, #502938) diluted in perm/wash buffer for 20 min at 4° C. Cells were then washed twice, resuspended in 100 μl FACS buffer and analyzed directly on a Fortessa Special Order analyzer. Data were analyzed using FlowJo and Prism 7 software.

[2] = system: anti-CD19-CD28-CD3ζ chain CAR modified human T cells; experiment: Cytokine release and degranulation assay, anti-CD19-CD28-CD3ζ CAR T cells co-cultured with Raji or Daudi; format: cell-based; conditions: co-culture with CD19 positive Raji or Daudi; 10 μM asunaprevir
Protocol: as §2
(§4) After incubation, cells were washed once with PBS and stained with IR dye (Invitrogen, #L34976) at 1:400 dilution for 5 minutes at 4° C. […]
as §3

[3] = system: CD8 T cells modified with an NY-ESO-1 shared antigen specific TCR; experiment: Cytokine release and degranulation assay, NY-ESO-1 TCR T cells co-cultured with NY-ESO-1 peptide loaded T2 cells; format: cell-based, human; conditions: 10 μM asunaprevir
Protocol: as §1
T cells and NK cells were pretreated with the indicated concentrations of asunaprevir (MedChemExpress, #HY-14434), grazoprevir (MedChemExpress, #HY-15298), dTAG-13 (Tocris, #6605) or DMSO control in T cell media (RPMI/10% human serum/penicillin-streptomycin, 100 IU/ml IL2 and 5 ng/ml IL15) or NK cell media (RPMI/8% FCS/penicillin-streptomycin, 500 IU/ml IL2), respectively, for 24 hours before co-culture experiments. […]
as §3

[4] = system: primary human T cells modified with the CDK4 TCR; experiment: Cytokine release and degranulation assay, CDK4 TCR T cells with SMASh or FKBP12^F36V switch co-cultured with NKIRTIL006 tumor cells; format: cell-based
Protocol: as §2, §4, §3

NKIRTIL006 tumor cells = experiment: 51Cr release cytotoxicity assay; format: cell-based, human; conditions: 0.5 μM dTAG-13 vs DMSO
Protocol: Culture media of Zap70-PD1-FKBP^F36V expressing cells is supplemented with 0.5 μM dTAG-13 PROTAC starting one day before cell sorting until 4 days before ^51Cr assay. Primary human T cells modified with the CDK4 TCR plus either the Zap70-PD1-FKBP^F36V switch or IRES-EGFP vector control were sorted on a Beckman Coulter Moflo Astrios using an 80 μM nozzle. Cells were cultured in standard T cell culturing conditions in RPMI/10 human serum/penicillin-streptomycin 100 IU/ml IL-2 and 5 ng/ml IL-15 for 7 days.
After this, cells were expanded using a rapid expansion protocol (REP). […] At day 6, culture media is refreshed with 3000 IU/ml IL-2 containing media and cultures were split into 2 every 3 days with media containing IL-2 (3000 IU/ml final concentration). At day 12, cells were switched to standard T cell culturing conditions (RPMI/10% human serum/penicillin-streptomycin/100 IU/ml IL-2 and 5 ng/ml IL-15) for 3 days, until use in ^51Cr assays.
One day prior to ^51Cr assay, T cells were pretreated with 0.5 μM dTAG-13 PROTAC or DMSO in standard T cell culturing conditions in RPMI/10% human serum/penicillin-streptomycin/100 IU/ml IL-2 and 5 ng/ml IL-15. 5×10^5 tumor cells were resuspended in 100 μl media, mixed gently with 100 ρCi ^51Cr and then incubated at 37° C. for 45 minutes. […]

NK cell line KHYG-1 = experiment: Cytokine release assay, KHYG-1 NK cells co-cultured with K562 tumor; format: cell-based, human; conditions: Zap70-PD1-FKBP12^F36V switch; 0.5 μM dTAG-13
Protocol: Human NK cell line KHYG-1 (DSMZ, Leibniz, Germany) was cultured in RPMI supplemented with 8% FBS and penicillin-streptomycin (100 IU/ml penicillin, 100 μg/ml streptomycin) containing 500 IU/ml IL-2 (Novartis). All cell lines were tested for mycoplasma using PCR based screening (Young et al, Nat Protoc. 2010 May; 5(5):929-34) and found negative.
24-well non treated cell culture plates were covered with 10 μg/ml retronectin (Takara, #T100B) overnight at 4° C. The next day, the retronectin solution was removed and wells were blocked with 2% BSA (Sigma-Aldrich, A9418-500g) in PBS for 30 minutes. […]
as §3

[5] = system: primary human T cells modified with the CDK4 TCR and Zap70-PD1-zinc finger degrons; experiment: IMiD regulation of zinc finger degron CRASH-IT switches, CDK4 TCR T cells co-cultured with NKIRTIL006 tumor cells; format: cell-based; conditions: for restoration of activity levels (cytokine production, cell surface LAMP-1) by IMiD: IKZF1-based CRASH-IT switch (IKZF1 ZF2-ZF3 degron)
From the text: Constructs containing various zinc finger degrons in MP71 Zap70-PD1-Zinc finger IRES-EGFP format were created using IKZF1 ZF2-3 degron containing sequence (Q13422, 141-197 aa), or IKZF3 ZF2-3 degron containing sequence (Q9UKT9, 142-198 aa), or ZFP91 ZF4-5 degron containing sequence (Q96JP5, 396-455 aa), ZNF276 ZF4-5 degron containing sequence (Q8N554, 520-579 aa), ZNF653 ZF4-5 degron containing sequence (Q96CK0, 552-611 aa), or ZNF692 ZF4-5 degron containing sequence (Q9BU19, 413-473 aa). For CRASH-IT switches encoding hybrid zinc finger degrons, the IKZF1 ZF2 beta turn sequence (FQCNQCGASFT) was replaced with beta turn sequences from ZNF653 ZF4 (LQCEICGYQCR), ZFP91 ZF4 (LQCEICGFTCR), ZNF276 ZF4 (LQCEVCGFQCR), or ZNF827 ZF1 (FQCPICGLVIK). For the CRASH-IT switch encoding ZFP91/IKZF1 hybrid zinc finger without IKZF1 ZF3 (single ZF), the IKZF1 ZF3 containing sequence (Q13422, 170-197 aa) was deleted from the Zap70-PD1-ZFP91/IKZF1 hybrid zinc finger (double ZF) construct.
as §2
After incubation, cells were washed once with PBS and stained with IR dye (Invitrogen, #L34976) at 1:400 dilution for 5 minutes at 4° C. Subsequently, cells were washed once with FACS buffer (PBS plus 0.5% BSA) and stained with anti-CD8-PerCP Cy5.5 (1:20 dilution, BD, #341050), anti-CD4 BV711 (1:50 dilution, Biolegend, #317440), anti-murine constant TCR-PE (in experiments with transduced TCRs, 1:200 dilution, BD, #553172) or cetuximab-PE (in experiments with transduced CAR construct containing truncated human EGFR reporter, 1:200 dilution, R&D Systems, #FAB9577P) for 20 minutes at 4° C. […]
as §3

[6] = Zap70-PD1-SMASh T cells, 10 μM asunaprevir relative to DMSO-treated cells, peptide-loaded target cells (10 nM)

SMILES: C=C[C@@H]1C[C@]1(NC(=O)[C@@H]1C[C@@H](Oc2ncc(OC)c3ccc(Cl)cc23)CN1C(=O)[C@@H](NC(=O)OC(C)(C)C)C(C)(C)C)C(=O)NS(=O)(=O)C1CC1 [asunaprevir]
- boost of CD8+ T cell activation, IFNγ [1, 6]: 8.8 fold
- boost of CD8+ T cell activation, IL2 [1, 6]: 11.5 fold
- boost of CD8+ T cell activation, TNFα [1, 6]: 6.3 fold
- boost of CD8+ T cell activation, cell surface LAMP1 expression [1, 6]: 6.6 fold
- drug effect on inhibition of T cell function by Zap70-PD1-SMASh ([1]; primary human CD8 and CD4 T cells with Zap70-PD1-SMASh): reverted; also recorded: dose dependent recovery
- effector functions of Zap70-PD1-SMASh fusion protein-negative T cells (vector control) ([1]; vector control T cells, protease inhibitor): unaltered
- T cell functions of CAR T cells with Zap70-PD1-SMASh upon drug addition [2]: recovered
- functional activity of NY-ESO-1 TCR CD8 T cells with CRASH-IT switch upon drug addition [3]: restored

SMILES: CC[C@H](C(=O)N1CCCC[C@H]1C(=O)O[C@H](CCc1ccc(OC)c(OC)c1)c1ccccc1OCC(=O)NCCCCCCOc1cccc2c1C(=O)N(C1CCC(=O)NC1=O)C2=O)c1cc(OC)c(OC)c(OC)c1 (some centres unmarked) [dTAG-13]
- reactivation of T cell function at high drug concentrations ([4]; FKBP12^F36V/dTAG-13 based switches, high drug concentrations): suboptimal reactivation of T cell function
- concentration at which activation of CRASH-IT platform peaks ([4]; small-molecule titration, Zap70-PD1-FKBP12^F36V (dTAG-13) or Zap70-PD1-SMASh (HCV NS3/4A inhibitors)): around 0.5 μM
- cytotoxic activity of control vector-modified T cells (NKIRTIL006 tumor cells): unaltered
- killing of 51Cr loaded NKIRTIL006 tumor cells by sorted CD8 cells with Zap70-PD1-FKBP12^F36V (NKIRTIL006 tumor cells): increased killing
- suppression of NK cell cytokine production in the presence of drug (NK cell line KHYG-1): reversed

SMILES: Nc1cccc2c1CN(C1CCC(=O)NC1=O)C2=O (centres unmarked) [lenalidomide]
- restoration of activity levels (cytokine production, cell surface LAMP-1) by IMiD [5]: robustly restored

SMILES: Nc1cccc2c1C(=O)N(C1CCC(=O)NC1=O)C2=O (centres unmarked) [pomalidomide]
- restoration of activity levels (cytokine production, cell surface LAMP-1) by IMiD [5]: robustly restored

SMILES: O=C1CCC(N2C(=O)c3ccccc3C2=O)C(=O)N1 (centres unmarked) [thalidomide]
- restoration of activity levels (cytokine production, cell surface LAMP-1) by IMiD [5]: lesser
- reduction of thalidomide concentration required for the same level of cytokine production (IFNγ, IL-2, or TNFα) or surface LAMP-1 expression ([5]; T cells expressing the chimeric degrons as compared to the parental IKZF1 ZF2-3 degron): around 1,000 fold
